Patent publication EP0700399B1, “36-DERIVATIVES OF RIFAMYCINS AND THEIR USE AS ANTIMICROBIAL AGENTS” (GRUPPO LEPETIT S.P.A., priority 1993, dated 1994)
Read-outs that look alike come from different tables or passages of the source.

Tests used:
Staphylococcus aureus = experiment: MIC by broth microdilution; format: cell-based; conditions: internal code L165; for MIC: Staphylococcus aureus, read-out: MIC of the compounds
Staph. aureus rifa-r^(1) = experiment: MIC by broth microdilution; format: cell-based; conditions: for MIC of the compounds: internal code L721, rifampicin resistant strain, moderately resistant; for MIC: Staphylococcus aureus, read-out: MIC of the compounds
Staph. aureus rifa-r^(2) = experiment: MIC by broth microdilution; format: cell-based; conditions: for MIC of the compounds: internal code L1282, rifampicin resistant strain, highly resistant; for MIC: Staphylococcus aureus, read-out: MIC of the compounds
Staph. aureus Smith = experiment: MIC by broth microdilution; format: cell-based; conditions: internal code L819; for MIC: Staphylococcus aureus, read-out: MIC of the compounds
[1] = system: Staph. epidermidis ATCC 12228; experiment: MIC by broth microdilution; format: cell-based; conditions: internal code L147; for MIC: Staphylococcus epidermidis, ATCC12228, read-out: MIC of the compounds
[2] = system: Staph. haemolyticus rifa-r^(2); experiment: MIC by broth microdilution; format: cell-based; conditions: for MIC of the compounds: internal code L602, rifampicin resistant strain, highly resistant; for MIC: Staphylococcus haemolyticus, read-out: MIC of the compounds
Streptococcus pyogenes = experiment: MIC by broth microdilution; format: cell-based; conditions: internal code L49; for MIC: Streptococcus pyogenes, read-out: MIC of the compounds
Strept. pneumoniae = experiment: MIC by broth microdilution; format: cell-based; conditions: internal code L44; for MIC: Streptococcus pneumoniae, read-out: MIC of the compounds
[3] = system: Enterococc. faecalis ATCC 7080; experiment: MIC by broth microdilution; format: cell-based, Enterococcus faecalis; conditions: internal code L149; for MIC: Enterococcus faecalis, ATCC7080, read-out: MIC of the compounds
[4] = system: Propionibact. acnes ATCC 6919; experiment: MIC by broth microdilution; format: cell-based, Propionibacterium acnes; conditions: internal code L1014, anaerobic, 48 hours; for MIC: Cutibacterium acnes, ATCC6919, read-out: MIC of the compounds
[5] = system: Bacteroides fragilis ATCC 25285; experiment: MIC by broth microdilution; format: cell-based; conditions: internal code L1011, anaerobic, 48 hours; for MIC: Bacteroides fragilis, ATCC25285, read-out: MIC of the compounds
Neisseria gonorrhoeae = experiment: MIC by broth microdilution; format: cell-based; conditions: internal code L997, 5% carbon dioxide, 48 hours; for MIC: Neisseria gonorrhoeae, read-out: MIC of the compounds
[6] = system: Haemoph. influenzae ATCC 19418; experiment: MIC by broth microdilution; format: cell-based, Haemophilus influenzae; conditions: internal code L970, 5% carbon dioxide, 48 hours; for MIC: Haemophilus influenzae, ATCC19418, read-out: MIC of the compounds
Escherichia coli = experiment: MIC by broth microdilution; format: cell-based; conditions: internal code L47; for MIC: Escherichia coli, read-out: MIC of the compounds
[7] = system: Proteus vulgaris ATCC 881; experiment: MIC by broth microdilution; format: cell-based; conditions: internal code L79; for MIC: Proteus vulgaris, ATCC881, read-out: MIC of the compounds
[8] = system: Pseudomonas aerug. ATCC10145; experiment: MIC by broth microdilution; format: cell-based, Pseudomonas aeruginosa; conditions: internal code L4; for MIC: Pseudomonas, ATCC10145, read-out: MIC of the compounds
[9] = system: Bacteroides fragilis ATCC 23745; experiment: MIC by broth microdilution; format: cell-based; conditions: internal code L1010, anaerobic, 48 hours
[10] = system: Staphylococcus aureus Smith (Int. code L 819); experiment: Experimental septicemia in mice; format: in vivo; conditions: Staphylococcus aureus, 168 h, treated once immediately after infection, survival on the 7th day
Description: Some compounds of the invention were also tested in experimental septicemia in mice infected with Staphylococcus aureus Smith (Int. code L 819). For this purpose, groups of five mice were infected intraperitoneally with about 1 x 10^6 CFU of S. aureus Smith suspended in 0.5 ml of Difco bacteriological mucin. Untreated animals died within 48 hours. The other animals were treated once immediately after infection. On the 7th day the value of ED50 (expressed in mg/kg) was calculated by the method of Spearman-[…]., Statistical method in biological assay, page 254, C. Griffin Ltd., London, 1952), on the basis of the percentage of animals surviving at each dose.

[11] = system: Esch. coli K12 hyperpermeable; experiment: MIC by broth microdilution; format: cell-based, Escherichia coli; conditions: internal code G1640; hyperpermeable
[12] = system: Esch. coli K12 rifa-r^(1); experiment: MIC by broth microdilution; format: cell-based, Escherichia coli; conditions: internal code G1064; rifampicin resistant strain, moderately resistant
[13] = sc, subcutaneous, read-out: ED50 SC route
[14] = intravenous, read-out: ED50 IV route

Molecule | MIC (Staphylococcus aureus) [µg/mL] | MIC (Staph. aureus rifa-r^(1)) [µg/mL] | MIC (Staph. aureus rifa-r^(2)) [µg/mL] | MIC [1] [µg/mL] | MIC [2] [µg/mL] | MIC (Streptococcus pyogenes) [µg/mL] | MIC (Strept. pneumoniae) [µg/mL] | MIC [3] [µg/mL] | MIC [4] [µg/mL] | MIC (Neisseria gonorrhoeae) [µg/mL] | MIC [6] [µg/mL] | MIC (Escherichia coli) [µg/mL] | MIC [7] [µg/mL] | MIC [8] [µg/mL] | ED50 [10, 13] [mg/kg] | MIC (Staph. aureus Smith) [µg/mL] | MIC [5] [µg/mL] | ED50 [10, 14] [mg/kg] | other results
36-{[1-Ethyl-1,4-dihydro-1-methyl-4-oxo-1,8-naphthyridin-3-yl)carbonyloxy}-3-{[(4-methyl-1-piperazinyl)imino]methyl}rifamycin SV [Compound C27] |  |  |  |  |  |  |  |  |  |  |  |  |  |  |  |  |  |  | MIC of the compounds (Staphylococcus aureus): 0.03 µg/mL; MIC of the compounds (Staph. aureus rifa-r^(1)): 0.25 µg/mL; MIC of the compounds (Staph. aureus rifa-r^(2)): 16 µg/mL; MIC of the compounds (Staph. aureus Smith): 0.016 µg/mL; MIC of the compounds [1]: 0.016 µg/mL; MIC of the compounds [2]: 16 µg/mL; MIC of the compounds (Streptococcus pyogenes): 0.008 µg/mL; MIC of the compounds (Strept. pneumoniae): 0.008 µg/mL; MIC of the compounds [3]: 2 µg/mL; MIC of the compounds [4]: 0.03 µg/mL; MIC of the compounds [5]: 0.13 µg/mL; MIC of the compounds (Neisseria gonorrhoeae): 0.13 µg/mL; MIC of the compounds [6]: 0.25 µg/mL; MIC of the compounds (Escherichia coli): 32 µg/mL; MIC of the compounds [7]: 16 µg/mL; MIC of the compounds [8]: 32 µg/mL
CCn1cc(C(=O)OCC(=O)O[C@H]2[C@H](C)[C@H](O)[C@H](C)[C@@H](O)[C@@H](C)/C=C/C=C(/C)C(=O)NC3=CC(=O)c4c(c(O)c(C)c5c4C(=O)[C@@](C)(O/C=C/[C@H](OC)[C@H]2C)O5)C3=O)c(=O)c2cc(F)c(N3CCN(C)CC3)cc21 [Compound C23, 36-{2-[1-Ethyl-6-fluoro-1,4-dihydro-7-(4-methyl-1-piperazinyl)-4-oxo-3-quinolinyl]carbonyloxy} rifamycin S] | 0.06 | 0.06 | 1 | 0.06 | 4 | 0.004 | 0.004 | 0.13 | 2 | 8 | 2 | 128 | 128 | > 128 | 32.9 |  |  |  | MIC ([9]; Bacteroides fragilis, ATCC23745, read-out: MIC of the compounds): 8 µg/mL
CCn1cc(C(=O)OCC(=O)O[C@H]2[C@H](C)[C@H](O)[C@H](C)[C@@H](O)[C@@H](C)/C=C/C=C(/C)C(=O)Nc3c(C=NN4CCN(C5CCCC5)CC4)c(O)c4c5c(c(C)c(O)c4c3O)O[C@](C)(O/C=C/[C@H](OC)[C@H]2C)C5=O)c(=O)c2cc(F)c(N3CCN(C)CC3)cc21 [Compound C26, 3-[[(4-Cyclopentyl-1-piperazinyl)-imino]methyl}-36-{[1-ethyl-6-fluoro-1,4-dihydro-7-(4-methyl-1-piperazinyl)-4-oxo-3-quinolinyl]carbonyloxy}-rifamycin SV] | 0.06 | 0.13 | 2 | 0.06 | 0.5 | 0.03 | 0.03 | 4 | 0.13 | 0.13 | 1 | 2 | 2 | 32 | 1.6 | 0.13 | 1 | 0.95 | 
CO[C@H]1/C=C/O[C@@]2(C)Oc3c(C)c(O)c4c(O)c(c(C=NN5CCN(C)CC5)c(O)c4c3C2=O)NC(=O)/C(C)=C\C=C\[C@H](C)[C@H](O)[C@@H](C)[C@@H](O)[C@@H](C)[C@H](OC(=O)COC(=O)c2cn(C3CC3)c3cc(-c4cc(C)nc(C)c4)c(F)cc3c2=O)[C@@H]1C [Compound C29, 36-{[1-Cyclopropyl-6-fluoro-1,4-dihydre-7-(2,6-dimethyl-4-pyridinyl)-4-oxo-3-quinolinyl]-carbonyloxy}-3-{[(4-methyl-1-piperazinyl)imino]-methyl}rifamycin SV] | 0.03 | 0.5 | 2 | 0.03 | 8 | 0.016 | 0.016 | 2 | 0.06 | 0.25 | 0.25 | 16 | 128 | > 128 |  | 0.03 | 0.13 |  | 
CCn1cc(C(=O)OCC(=O)O[C@H]2[C@H](C)[C@H](O)[C@H](C)[C@@H](O)[C@@H](C)/C=C/C=C(/C)C(=O)Nc3c(C=NN4CCN(C)CC4)c(O)c4c5c(c(C)c(O)c4c3O)O[C@](C)(O/C=C/[C@H](OC)[C@H]2C)C5=O)c(=O)cc1N1CCN(C)CC1 [Compound C30, 36-{[1-Ethyl-1,4-dihydro-6-(4-methyl-1-piperazinyl)-4-oxo-3-pyridinyl]carbonyloxy]-3-{[(4-methyl-1-piperazinyl)imino]methyl}rifamycin SV] | 0.016 | 0.5 | 1 | 0.016 | 4 | 0.016 | 0.008 | 0.25 | 0.03 | 0.13 | 1 | 16 | 16 | 32 | 1.6 | 0.016 | 0.06 | 0.72 | 
CCn1cc(C(=O)OCC(=O)O[C@H]2[C@H](C)[C@H](O)[C@H](C)[C@@H](O)[C@@H](C)/C=C/C=C(/C)C(=O)Nc3c(C=NN4CCN(C)CC4)c(O)c4c5c(c(C)c(O)c4c3O)O[C@](C)(O/C=C/[C@H](OC)[C@H]2C)C5=O)c(=O)c2cc(F)c(N3CCN(C)CC3)cc21 [Compound C25, 36-{[1-Ethyl-6-fluoro-1,4-dihydro-7-(4-methyl-1-piperazinyl)-4-oxo-3-quinolinyl]carbonyloxy}-3-{[(4-methyl-1-piperazinyl)imino]methyl}rifamycin SV] | 0.06 | 0.13 | 1 | 0.13 | 1 | 0.03 | 0.016 | 2 |  | 0.5 | 1 | 64 | 64 | 128 | 4.7 | 0.06 | 2 | 2.9 | 
CCn1cc(C(=O)OCC(=O)O[C@H]2[C@H](C)[C@H](O)[C@H](C)[C@@H](O)[C@@H](C)/C=C/C=C(/C)C(=O)Nc3c(C=NN4CCN(C)CC4)c(O)c4c5c(c(C)c(O)c4c3O)O[C@](C)(O/C=C/[C@H](OC)[C@H]2C)C5=O)c(=O)c2cnc(N3CCN(C)CC3)nc21 [Compound C28] | 0.06 | 0.13 | 2 | 0.06 | 4 | 0.016 | 0.008 | 8 | 0.06 | 0.25 | 2 | 64 | 64 | 128 |  | 0.06 | 1 |  | 
36-Bromo-2'-(diethylamino)rifamycin P [Compound C9] |  |  |  |  |  |  |  |  |  |  |  |  |  |  |  |  |  |  | MIC of the compounds (Staphylococcus aureus): 0.06 µg/mL; MIC of the compounds (Staph. aureus rifa-r^(1)): 8 µg/mL; MIC of the compounds (Staph. aureus rifa-r^(2)): > 128 µg/mL; MIC of the compounds [1]: 0.06 µg/mL; MIC of the compounds [2]: ≥ 128 µg/mL; MIC of the compounds (Streptococcus pyogenes): 0.13 µg/mL; MIC of the compounds (Strept. pneumoniae): 0.13 µg/mL; MIC of the compounds [3]: 2 µg/mL; MIC of the compounds [4]: 0.06 µg/mL; MIC of the compounds [9]: 0.13 µg/mL; MIC of the compounds (Neisseria gonorrhoeae): 0.5 µg/mL; MIC of the compounds [6]: 0.25 µg/mL; MIC of the compounds (Escherichia coli): 16 µg/mL; MIC of the compounds [11]: 2 µg/mL; MIC of the compounds [12]: > 128 µg/mL; MIC of the compounds [7]: 32 µg/mL; MIC of the compounds [8]: 16 µg/mL
